Tested on: 843126-344-R-J1-PDC complex spheroid viability
Assay: Anticancer human tumor 843126-344-R-J1-PDC patient-derived melanoma cell line growth inhibition [POLQ]
Details: for IC50: curve of first compound; for viability, T/C: stronger effect = lower value
Outline: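 Patient-derived tumour cells were co-cultured with HUVEC and mesenchymal stem cells as multicellular spheroids at 37 °C. They were treated with POLQ inhibitors (novobiocin, ART-558, RP6685) alone or combined with other agents. Top concentrations were at or near clinical Cmax (otherwise 10 microM; SN-38 at 1 microM), decreasing in half-log steps.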

[1] = second compound 0.0316 µM, first compound 0.00316 µM
[2] = second compound 0.0316 µM, first compound 0.01 µM
[3] = second compound 0.0316 µM, first compound 0.0316 µM
[4] = second compound 0.0316 µM, first compound 0.1 µM
[5] = second compound 0.1 µM, first compound 0.00316 µM
[6] = second compound 0.1 µM, first compound 0.01 µM
[7] = second compound 0.1 µM, first compound 0.0316 µM
[8] = second compound 0.1 µM, first compound 0.1 µM
[9] = second compound 0.316 µM, first compound 0.00316 µM
[10] = second compound 0.316 µM, first compound 0.01 µM
[11] = second compound 0.316 µM, first compound 0.0316 µM
[12] = second compound 0.316 µM, first compound 0.1 µM
[13] = second compound 1 µM, first compound 0.00316 µM
[14] = second compound 1 µM, first compound 0.01 µM
[15] = second compound 1 µM, first compound 0.0316 µM
[16] = second compound 1 µM, first compound 0.1 µM
[17] = second compound 3.16 µM, first compound 0.00316 µM
[18] = second compound 3.16 µM, first compound 0.01 µM
[19] = second compound 3.16 µM, first compound 0.0316 µM
[20] = second compound 3.16 µM, first compound 0.1 µM
[21] = second compound 10 µM, first compound 0.00316 µM
[22] = second compound 10 µM, first compound 0.01 µM
[23] = second compound 10 µM, first compound 0.0316 µM
[24] = second compound 10 µM, first compound 0.1 µM
[25] = second compound 0.0316 µM, first compound 0.316 µM
[26] = second compound 0.0316 µM, first compound 1 µM
[27] = second compound 0.1 µM, first compound 0.316 µM
[28] = second compound 0.1 µM, first compound 1 µM
[29] = second compound 0.316 µM, first compound 0.316 µM
[30] = second compound 0.316 µM, first compound 1 µM
[31] = second compound 1 µM, first compound 0.316 µM
[32] = second compound 1 µM, first compound 1 µM
[33] = second compound 3.16 µM, first compound 0.316 µM
[34] = second compound 3.16 µM, first compound 1 µM
[35] = second compound 10 µM, first compound 0.316 µM
[36] = second compound 10 µM, first compound 1 µM
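Wherever viability, T/C is given: spheroids exposed to drugs for seven days before readout.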

CC[C@@]1(O)C(=O)OCc2c1cc1n(c2=O)Cc2cc3c(CN(C)C)c(O)ccc3nc2-1 + COC1C(OC(N)=O)C(O)C(Oc2ccc3c(O)c(NC(=O)c4ccc(O)c(CC=C(C)C)c4)c(=O)oc3c2C)OC1(C)C
IC50 (second compound 0.0316 µM): > 100 nM | IC50 (second compound 0.1 µM): 96 nM | IC50 (second compound 0.316 µM): > 100 nM | IC50 (second compound 1 µM): 76.9 nM | IC50 (second compound 3.16 µM): > 100 nM | IC50 (second compound 10 µM): > 100 nM | viability, T/C (second compound 0.0316 µM, first compound 0.000316 µM): 94.8% | viability, T/C (second compound 0.0316 µM, first compound 0.001 µM): 89.7% | viability, T/C [1]: 104% | viability, T/C [2]: 110% | viability, T/C [3]: 57.3% | viability, T/C [4]: 52.5% | viability, T/C (second compound 0.1 µM, first compound 0.000316 µM): 95.7% | viability, T/C (second compound 0.1 µM, first compound 0.001 µM): 104% | viability, T/C [5]: 123% | viability, T/C [6]: 91.4% | viability, T/C [7]: 78.2% | viability, T/C [8]: 48.7% | viability, T/C (second compound 0.316 µM, first compound 0.000316 µM): 114% | viability, T/C (second compound 0.316 µM, first compound 0.001 µM): 99.2% | viability, T/C [9]: 91.1% | viability, T/C [10]: 70.9% | viability, T/C [11]: 91.3% | viability, T/C [12]: 46.6% | viability, T/C (second compound 1 µM, first compound 0.000316 µM): 84.5% | viability, T/C (second compound 1 µM, first compound 0.001 µM): 83.8% | viability, T/C [13]: 102% | viability, T/C [14]: 82.4% | viability, T/C [15]: 61.5% | viability, T/C [16]: 46.6% | viability, T/C (second compound 3.16 µM, first compound 0.000316 µM): 92.3% | viability, T/C (second compound 3.16 µM, first compound 0.001 µM): 96.3% | viability, T/C [17]: 101% | viability, T/C [18]: 91% | viability, T/C [19]: 63.2% | viability, T/C [20]: 54% | viability, T/C (second compound 10 µM, first compound 0.000316 µM): 95.5% | viability, T/C (second compound 10 µM, first compound 0.001 µM): 109% | viability, T/C [21]: 110% | viability, T/C [22]: 119% | viability, T/C [23]: 74.1% | viability, T/C [24]: 54%

CCc1c2c(nc3ccc(O)cc13)-c1cc3c(c(=O)n1C2)COC(=O)[C@]3(O)CC + COC1C(OC(N)=O)C(O)C(Oc2ccc3c(O)c(NC(=O)c4ccc(O)c(CC=C(C)C)c4)c(=O)oc3c2C)OC1(C)C
IC50 (second compound 0.0316 µM): > 1000 nM | IC50 (second compound 0.1 µM): > 1000 nM | IC50 (second compound 0.316 µM): > 1000 nM | IC50 (second compound 1 µM): 429 nM | IC50 (second compound 3.16 µM): 242 nM | IC50 (second compound 10 µM): 485 nM | viability, T/C [1]: 63.2% | viability, T/C [2]: 59.4% | viability, T/C [3]: 65.9% | viability, T/C [4]: 64.5% | viability, T/C [25]: 63.1% | viability, T/C [26]: 42.7% | viability, T/C [5]: 66.5% | viability, T/C [6]: 52.1% | viability, T/C [7]: 71.4% | viability, T/C [8]: 69.2% | viability, T/C [27]: 63.8% | viability, T/C [28]: 48.6% | viability, T/C [9]: 70.5% | viability, T/C [10]: 59.4% | viability, T/C [11]: 64.9% | viability, T/C [12]: 64.8% | viability, T/C [29]: 73% | viability, T/C [30]: 50.3% | viability, T/C [13]: 66.7% | viability, T/C [14]: 48.2% | viability, T/C [15]: 50.9% | viability, T/C [16]: 70.6% | viability, T/C [31]: 48.6% | viability, T/C [32]: 40.5% | viability, T/C [17]: 66.9% | viability, T/C [18]: 63.7% | viability, T/C [19]: 73.3% | viability, T/C [20]: 57.1% | viability, T/C [33]: 50.9% | viability, T/C [34]: 44.8% | viability, T/C [21]: 59.9% | viability, T/C [22]: 62.7% | viability, T/C [23]: 56.3% | viability, T/C [24]: 67.5% | viability, T/C [35]: 50% | viability, T/C [36]: 43%

Nc1ccn(C2OC(CO)C(O)C2(F)F)c(=O)n1 (stereo unspecified) + COC1C(OC(N)=O)C(O)C(Oc2ccc3c(O)c(NC(=O)c4ccc(O)c(CC=C(C)C)c4)c(=O)oc3c2C)OC1(C)C
IC50 (second compound 0.0316 µM): < 31.6 nM | IC50 (second compound 0.1 µM): < 31.6 nM | IC50 (second compound 0.316 µM): < 31.6 nM | IC50 (second compound 1 µM): < 31.6 nM | IC50 (second compound 3.16 µM): < 31.6 nM | IC50 (second compound 10 µM): < 31.6 nM | viability, T/C [3]: 33.5% | viability, T/C [4]: 34.9% | viability, T/C [25]: 36.8% | viability, T/C [26]: 36.1% | viability, T/C (second compound 0.0316 µM, first compound 3.16 µM): 41.7% | viability, T/C (second compound 0.0316 µM, first compound 10 µM): 34.7% | viability, T/C [7]: 41.3% | viability, T/C [8]: 36.5% | viability, T/C [27]: 34.9% | viability, T/C [28]: 37.8% | viability, T/C (second compound 0.1 µM, first compound 3.16 µM): 37.3% | viability, T/C (second compound 0.1 µM, first compound 10 µM): 33.7% | viability, T/C [11]: 38.6% | viability, T/C [12]: 36.4% | viability, T/C [29]: 39.4% | viability, T/C [30]: 32.9% | viability, T/C (second compound 0.316 µM, first compound 3.16 µM): 36.9% | viability, T/C (second compound 0.316 µM, first compound 10 µM): 33.4% | viability, T/C [15]: 38.9% | viability, T/C [16]: 36% | viability, T/C [31]: 39.3% | viability, T/C [32]: 31.7% | viability, T/C (second compound 1 µM, first compound 3.16 µM): 40% | viability, T/C (second compound 1 µM, first compound 10 µM): 35.7% | viability, T/C [19]: 43.5% | viability, T/C [20]: 34.6% | viability, T/C [33]: 38% | viability, T/C [34]: 30.8% | viability, T/C (second compound 3.16 µM, first compound 3.16 µM): 39.5% | viability, T/C (second compound 3.16 µM, first compound 10 µM): 31.2% | viability, T/C [23]: 38.4% | viability, T/C [24]: 37.8% | viability, T/C [35]: 38% | viability, T/C [36]: 32.8% | viability, T/C (second compound 10 µM, first compound 3.16 µM): 32% | viability, T/C (second compound 10 µM, first compound 10 µM): 32%
